We go through ten compounds from publication PMC9469208 (Journal of Medicinal Chemistry, 2022).

Data set [1] has as its system PTZ-induced seizures in mice. The conditions noted are these: mouse, in vivo; cited from earlier work.
The test system of data set [2] is PTZ-induced kindling in mice. The conditions noted are these: VPA 150 mg/kg i.p. (positive control).
Data set [3] deals with 6 Hz (32 mA) seizures in mice. The note with it: mouse, in vivo; cited from earlier work.
Data set [4] addresses T1, GlyRA1 (Homo sapiens, UniProt P23415).
T1 construct: purchased Cerep (Eurofins), Poitiers, France; Promega P450-Glo; in-house COS-7 uptake assays
T1 sequence (P23415 29-457): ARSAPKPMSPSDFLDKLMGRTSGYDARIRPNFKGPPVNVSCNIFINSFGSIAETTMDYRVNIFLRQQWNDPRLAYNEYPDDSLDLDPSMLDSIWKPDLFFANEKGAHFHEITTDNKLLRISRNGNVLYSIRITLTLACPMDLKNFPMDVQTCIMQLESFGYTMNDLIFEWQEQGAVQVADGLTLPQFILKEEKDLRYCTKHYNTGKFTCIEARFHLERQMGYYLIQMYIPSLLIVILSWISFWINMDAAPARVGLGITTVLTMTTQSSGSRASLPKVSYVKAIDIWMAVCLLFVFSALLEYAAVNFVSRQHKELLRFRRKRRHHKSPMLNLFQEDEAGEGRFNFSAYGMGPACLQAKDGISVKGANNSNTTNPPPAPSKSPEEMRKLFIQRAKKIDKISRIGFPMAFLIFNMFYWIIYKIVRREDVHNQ
Type of data set: cell-based.

Data set [5] concerns maximal electroshock seizures in mice. The note with it: mouse, in vivo; cited from earlier work.
Data set [6] has as its system NMDA receptors (tonic NMDA currents).
The subject of data set [7] is motor coordination of mice. The note with it: mouse, in vivo, ip; cited from earlier work.
In data set [8] the target is hCav3.2 (Homo sapiens, UniProt O95180). Kind of data set: cell-based.
hCav3.2, sequence (O95180 whole entry): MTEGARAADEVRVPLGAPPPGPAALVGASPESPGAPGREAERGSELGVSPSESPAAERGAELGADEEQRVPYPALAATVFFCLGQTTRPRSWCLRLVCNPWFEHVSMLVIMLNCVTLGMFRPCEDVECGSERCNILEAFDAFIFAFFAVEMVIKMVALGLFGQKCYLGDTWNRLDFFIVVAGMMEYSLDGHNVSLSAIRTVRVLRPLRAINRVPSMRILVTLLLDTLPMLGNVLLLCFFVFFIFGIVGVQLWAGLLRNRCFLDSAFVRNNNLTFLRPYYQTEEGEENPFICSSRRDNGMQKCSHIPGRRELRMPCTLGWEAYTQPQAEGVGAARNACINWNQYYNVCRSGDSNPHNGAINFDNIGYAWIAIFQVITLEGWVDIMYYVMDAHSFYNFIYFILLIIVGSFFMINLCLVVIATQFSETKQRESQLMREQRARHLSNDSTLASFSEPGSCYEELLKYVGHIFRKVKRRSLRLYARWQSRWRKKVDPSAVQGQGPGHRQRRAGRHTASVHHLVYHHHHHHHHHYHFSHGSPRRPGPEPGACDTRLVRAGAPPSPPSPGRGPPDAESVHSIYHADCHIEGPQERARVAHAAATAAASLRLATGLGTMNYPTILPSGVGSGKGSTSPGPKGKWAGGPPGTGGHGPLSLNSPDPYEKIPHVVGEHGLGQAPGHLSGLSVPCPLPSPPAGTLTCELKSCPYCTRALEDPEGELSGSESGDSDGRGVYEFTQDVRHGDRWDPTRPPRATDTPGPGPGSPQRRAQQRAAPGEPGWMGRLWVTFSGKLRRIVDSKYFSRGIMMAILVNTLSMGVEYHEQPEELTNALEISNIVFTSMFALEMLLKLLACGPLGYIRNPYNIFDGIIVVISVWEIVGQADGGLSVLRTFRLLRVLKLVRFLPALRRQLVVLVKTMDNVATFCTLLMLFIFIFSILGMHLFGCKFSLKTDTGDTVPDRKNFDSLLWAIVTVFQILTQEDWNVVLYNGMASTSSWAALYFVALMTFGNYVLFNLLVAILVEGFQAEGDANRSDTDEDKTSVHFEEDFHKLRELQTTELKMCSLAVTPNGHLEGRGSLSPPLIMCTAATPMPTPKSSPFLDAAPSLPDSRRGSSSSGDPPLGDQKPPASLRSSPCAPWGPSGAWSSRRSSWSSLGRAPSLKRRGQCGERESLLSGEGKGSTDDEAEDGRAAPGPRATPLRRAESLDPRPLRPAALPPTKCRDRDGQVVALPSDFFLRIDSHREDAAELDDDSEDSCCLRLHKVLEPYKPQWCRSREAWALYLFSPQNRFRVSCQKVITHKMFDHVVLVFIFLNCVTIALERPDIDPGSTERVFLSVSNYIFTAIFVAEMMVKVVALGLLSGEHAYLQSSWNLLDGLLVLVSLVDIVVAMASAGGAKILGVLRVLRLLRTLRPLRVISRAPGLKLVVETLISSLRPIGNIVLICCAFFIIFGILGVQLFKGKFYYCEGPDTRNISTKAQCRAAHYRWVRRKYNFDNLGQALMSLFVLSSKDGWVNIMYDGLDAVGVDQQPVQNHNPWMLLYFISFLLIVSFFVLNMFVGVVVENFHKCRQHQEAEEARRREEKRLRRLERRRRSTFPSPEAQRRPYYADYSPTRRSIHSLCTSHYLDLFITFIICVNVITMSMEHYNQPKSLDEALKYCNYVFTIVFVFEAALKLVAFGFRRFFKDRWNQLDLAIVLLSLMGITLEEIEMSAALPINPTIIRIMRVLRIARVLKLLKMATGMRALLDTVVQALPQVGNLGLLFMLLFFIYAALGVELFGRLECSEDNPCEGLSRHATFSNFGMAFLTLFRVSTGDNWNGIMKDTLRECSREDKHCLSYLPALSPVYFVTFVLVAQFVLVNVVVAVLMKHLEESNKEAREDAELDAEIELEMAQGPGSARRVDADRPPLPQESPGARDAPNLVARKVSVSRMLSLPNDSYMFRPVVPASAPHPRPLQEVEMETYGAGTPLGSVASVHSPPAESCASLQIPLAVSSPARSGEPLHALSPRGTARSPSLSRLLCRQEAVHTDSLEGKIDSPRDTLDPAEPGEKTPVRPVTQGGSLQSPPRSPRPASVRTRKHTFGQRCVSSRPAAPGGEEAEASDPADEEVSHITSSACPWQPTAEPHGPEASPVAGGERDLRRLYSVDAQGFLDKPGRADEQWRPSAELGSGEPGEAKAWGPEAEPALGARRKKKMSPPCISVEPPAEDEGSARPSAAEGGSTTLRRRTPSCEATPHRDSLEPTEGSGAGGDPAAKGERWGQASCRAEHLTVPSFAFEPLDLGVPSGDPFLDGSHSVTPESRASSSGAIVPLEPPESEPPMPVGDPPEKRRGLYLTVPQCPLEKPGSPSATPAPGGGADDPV
In data set [9] the target is T2, human SV2A (Homo sapiens, UniProt Q7L0J3).
T2 construct: expressed in transfected cells; host or cells: CHO cells
T2 sequence (Q7L0J3 whole entry): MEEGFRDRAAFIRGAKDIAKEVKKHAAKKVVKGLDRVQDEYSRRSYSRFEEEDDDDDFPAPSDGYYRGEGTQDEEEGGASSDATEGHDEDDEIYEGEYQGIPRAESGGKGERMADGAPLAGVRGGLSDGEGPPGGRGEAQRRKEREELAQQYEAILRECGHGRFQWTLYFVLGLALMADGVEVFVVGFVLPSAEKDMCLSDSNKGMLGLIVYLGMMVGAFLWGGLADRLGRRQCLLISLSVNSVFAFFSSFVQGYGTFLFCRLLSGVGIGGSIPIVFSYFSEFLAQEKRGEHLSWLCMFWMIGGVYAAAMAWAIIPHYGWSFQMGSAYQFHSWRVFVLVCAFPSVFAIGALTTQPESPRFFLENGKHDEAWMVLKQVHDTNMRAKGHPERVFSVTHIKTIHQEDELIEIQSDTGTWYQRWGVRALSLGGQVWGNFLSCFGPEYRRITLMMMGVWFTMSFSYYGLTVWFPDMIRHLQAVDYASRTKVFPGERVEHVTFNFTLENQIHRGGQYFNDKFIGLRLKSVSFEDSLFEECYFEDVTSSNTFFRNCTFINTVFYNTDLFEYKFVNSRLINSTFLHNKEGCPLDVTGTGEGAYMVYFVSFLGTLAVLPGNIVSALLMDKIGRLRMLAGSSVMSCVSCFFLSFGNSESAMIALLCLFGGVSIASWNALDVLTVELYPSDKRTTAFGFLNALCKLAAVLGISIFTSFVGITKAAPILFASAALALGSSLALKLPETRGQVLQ
Kind of data set: SV2A radioligand binding assay ([3H]brivaracetam). The conditions noted are these: [3H]brivaracetam 3 nM, human SV2A-expressing CHO cell lysate. How it is done:
(§1) The competitive radioligand-binding assay was essentially performed as previously described.[96],[97] The SV2A-containing preparations, either cell lysate of human SV2A-expressing CHO cells, or membrane preparations of mouse brain cortex, were incubated with the radioligand [^3H]brivaracetam (3 nM) in the absence or presence of test compound for 4 h. Incubation was performed in 500 μL of Tris-buffer (50 mM Tris–HCl, pH 7.4) containing 2 mM MgCl2 at 4 °C on a rocking shaker. […] The test compounds were dissolved in dimethyl sulfoxide (DMSO) and further diluted in DMSO. The DMSO concentration in all vials was adjusted to 2%. The separation of bound and unbound radioligand was performed via rapid vacuum filtration using GF/C glass fiber filters that had been presoaked in Tris-buffer containing 0.1% polyethyleneimine for 30 min. The filters were rapidly washed three times with about 1 mL of Tris-buffer each and subsequently placed in a drying oven at 50 °C for 90 min. The filters were then transferred to scintillation vials and 2.5 mL of scintillation cocktail (ProSafe FC+, Meridian Biotechnologies Ltd.) was added. After an incubation period of at least 9 h, radioactivity was measured in a scintillation counter. Results were analyzed by GraphPad Prism 7.0.

Data set [10] addresses T3, mouse SV2A (Mus musculus, UniProt Q9JIS5).
T3 construct: membrane preparations of mouse brain cortex; from tissue; host or cells: mouse brain cortex membranes
Put plainly: SV2A radioligand binding assay ([3H]brivaracetam). The conditions noted are these: mouse brain cortex membranes. How it is done: as §1

Like-named read-outs stand apart in the source and are kept apart here. A value given as a limit tells only on which side of the number the result lay.

T3 sequence (Q9JIS5 whole entry): as the sequence (Q7L0J3 whole entry) above, with S62A, T71A, E144D, A154T, G440S, S482A, I572V, M634L counted along it

Take `CCCC(CCC)C(=O)O` [VPA, valproic acid]: the “ED50 (scPTZ)” value in data set [1] is listed as 239.4 (209.2–274.1) mg/kg. Besides, in data set [2], the “effect on kindling development” value is reported as “suppressed kindling development”. Further, the “ED50 (6 Hz 32 mA)” value in data set [3] is reported as 130.6 (117.6–145.2) mg/kg.
Regarding `NCC(=O)O` [Glycine, reference compound], in data set [4], the “GlyRA1 agonist, % Control, Mean” value turned out to be 89.99%; the “GlyRA1 agonist, % Control, n1” value is on record as 92.59%; the “GlyRA1 agonist, % Control, n2” value is on record as 87.38%.
For `COC[C@@H](NC(C)=O)C(=O)NCc1ccccc1` [LCS, lacosamide], in data set [3], the “ED50 (6 Hz 32 mA)” value is 5.3 (3.5–7.8) mg/kg. Besides, the “ED50 (MES)” value in data set [5] is 9.2 (8.5–10.0) mg/kg.
Regarding `CCC1(C)CC(=O)NC1=O` (centres unmarked) [ETX, ethosuximide], the “ED50 (scPTZ)” value in [1] was 140.4 (115.8–170.2) mg/kg. For the same compound, in data set [3], the “ED50 (6 Hz 32 mA)” value is over 200 mg/kg.
For the compound `CC[C@@H](C(N)=O)N1CCCC1=O` [LEV, levetiracetam], in [5], the “ED50 (MES)” value is on record as over 500 mg/kg.
Regarding `NC(CCCP(=O)(O)O)C(=O)O` (centres unmarked) [AP-5], the “effect on tonic NMDA currents” value in data set [6] was “fully inhibited”.
Turning to `CC(C(=O)NCc1ccccc1F)N1C(=O)CCC1=O` (centres unmarked) [II], the “TD50 (rotarod)” value in [7] is reported as 300.9 (256.7–352.6) mg/kg.
For the compound `COCC(=O)O[C@]1(CCN(C)CCCc2nc3ccccc3[nH]2)CCc2cc(F)ccc2[C@@H]1C(C)C` [Mibefradil, reference compound], the inhibition at 30 µM in [8] (read-out: hCav3.2 % Inhibition, Mean) stood at 95.5%; in data set [8] (read-out: hCav3.2 % Inhibition, n1), 96.1%; in [8] (read-out: hCav3.2 % Inhibition, n2), 94.8%.
Regarding `C=C(C)[C@@H]1CCC(C)=C[C@H]1c1c(O)cc(CCCCC)cc1O` [CBD, cannabidiol], the “ED50 (scPTZ)” value in data set [1] is on record as 120 (98.5–146) mg/kg. In data set [5], the “ED50 (MES)” value is given as 80 (65.5–96.0) mg/kg.
`C[C@@H](C(=O)NCc1ccccc1)N1C(=O)CCC1=O` [(S)-7, (S)-N-Benzyl-2-(2,5-dioxopyrrolidin-1-yl)propanamide] displayed a Ki in [9] of 255 ± 69 µM. Also, the “Binding to mouse SV2A” value in [10] was “no binding observed”.

The term inhibition denotes the share of the control response that was lost under treatment. What is called Ki is a dissociation constant, usually derived from enzyme kinetics or from competition with a known ligand. A higher Ki goes with lower affinity.
